ChEMBL document CHEMBL1212896, “Discovery of novel cyanodihydropyridines as potent mineralocorticoid receptor antagonists” (J Med Chem, 2010)
In brackets after ≈: the same amount, converted by molar mass. Activity calls are given as the source filed them. The calls are words filed in the database; no cut-off is given here.

Assays:
[1] = target: T1, Glucocorticoid receptor (Homo sapiens, UniProt P04150); assay: Antagonist activity at glucocorticoid receptor LBD expressed in human HUH7 cells coexpressing GAL4 by luciferase reporter gene assay; type: functional, cell-based, Huh-7
T1 sequence (P04150 whole entry): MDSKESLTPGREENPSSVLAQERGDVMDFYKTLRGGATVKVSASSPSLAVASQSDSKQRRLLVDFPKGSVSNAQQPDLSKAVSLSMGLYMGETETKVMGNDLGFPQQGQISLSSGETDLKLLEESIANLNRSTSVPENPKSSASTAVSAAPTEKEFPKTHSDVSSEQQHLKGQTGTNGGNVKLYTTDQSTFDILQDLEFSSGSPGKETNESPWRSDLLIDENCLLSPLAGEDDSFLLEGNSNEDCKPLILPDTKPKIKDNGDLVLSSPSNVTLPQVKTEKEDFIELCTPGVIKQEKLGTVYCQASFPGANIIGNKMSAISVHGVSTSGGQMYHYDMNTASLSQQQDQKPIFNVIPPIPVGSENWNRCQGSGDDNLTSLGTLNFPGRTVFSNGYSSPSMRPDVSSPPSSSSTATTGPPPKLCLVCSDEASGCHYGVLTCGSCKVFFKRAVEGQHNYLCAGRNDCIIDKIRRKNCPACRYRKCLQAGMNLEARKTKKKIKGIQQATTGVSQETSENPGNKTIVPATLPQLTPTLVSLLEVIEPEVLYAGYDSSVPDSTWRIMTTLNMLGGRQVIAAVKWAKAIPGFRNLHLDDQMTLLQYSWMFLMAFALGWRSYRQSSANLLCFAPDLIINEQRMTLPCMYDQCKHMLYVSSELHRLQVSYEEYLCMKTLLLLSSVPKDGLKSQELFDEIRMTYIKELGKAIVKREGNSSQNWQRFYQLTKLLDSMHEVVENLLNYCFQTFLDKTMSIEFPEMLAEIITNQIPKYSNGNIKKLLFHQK

[2] = target: T2, Androgen receptor (Homo sapiens, UniProt P10275); assay: Antagonist activity at androgen receptor LBD expressed in human HUH7 cells coexpressing GAL4 by luciferase reporter gene assay; type: functional, cell-based, Huh-7
T2 sequence (P10275 whole entry): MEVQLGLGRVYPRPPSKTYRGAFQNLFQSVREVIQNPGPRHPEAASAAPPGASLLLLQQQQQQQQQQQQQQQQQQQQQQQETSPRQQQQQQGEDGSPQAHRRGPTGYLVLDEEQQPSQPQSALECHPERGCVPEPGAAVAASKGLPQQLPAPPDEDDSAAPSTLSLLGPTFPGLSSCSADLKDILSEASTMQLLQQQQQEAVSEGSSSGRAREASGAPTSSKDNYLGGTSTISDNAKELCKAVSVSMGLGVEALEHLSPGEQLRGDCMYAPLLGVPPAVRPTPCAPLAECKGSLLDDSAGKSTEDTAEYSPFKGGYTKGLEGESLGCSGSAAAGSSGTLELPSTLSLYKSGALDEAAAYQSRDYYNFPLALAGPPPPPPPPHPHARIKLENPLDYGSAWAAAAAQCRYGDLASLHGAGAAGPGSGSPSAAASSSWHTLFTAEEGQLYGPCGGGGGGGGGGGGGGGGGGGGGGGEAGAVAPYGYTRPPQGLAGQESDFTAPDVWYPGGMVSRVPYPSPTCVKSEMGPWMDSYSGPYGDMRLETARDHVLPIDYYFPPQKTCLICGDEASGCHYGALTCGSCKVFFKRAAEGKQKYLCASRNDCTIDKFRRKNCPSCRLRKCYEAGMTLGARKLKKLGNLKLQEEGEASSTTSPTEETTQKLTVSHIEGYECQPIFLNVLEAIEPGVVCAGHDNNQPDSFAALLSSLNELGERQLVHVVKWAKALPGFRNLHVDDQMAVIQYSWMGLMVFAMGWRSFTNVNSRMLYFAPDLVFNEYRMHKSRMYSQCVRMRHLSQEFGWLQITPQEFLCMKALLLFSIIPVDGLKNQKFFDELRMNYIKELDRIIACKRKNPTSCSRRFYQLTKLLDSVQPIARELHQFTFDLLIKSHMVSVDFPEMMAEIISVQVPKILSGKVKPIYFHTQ

[3] = target: T3, Progesterone receptor (Homo sapiens, UniProt P06401); assay: Antagonist activity at progesterone receptor LBD expressed in human HUH7 cells coexpressing GAL4 by luciferase reporter gene assay; type: functional, cell-based, Huh-7
T3 sequence (P06401 whole entry): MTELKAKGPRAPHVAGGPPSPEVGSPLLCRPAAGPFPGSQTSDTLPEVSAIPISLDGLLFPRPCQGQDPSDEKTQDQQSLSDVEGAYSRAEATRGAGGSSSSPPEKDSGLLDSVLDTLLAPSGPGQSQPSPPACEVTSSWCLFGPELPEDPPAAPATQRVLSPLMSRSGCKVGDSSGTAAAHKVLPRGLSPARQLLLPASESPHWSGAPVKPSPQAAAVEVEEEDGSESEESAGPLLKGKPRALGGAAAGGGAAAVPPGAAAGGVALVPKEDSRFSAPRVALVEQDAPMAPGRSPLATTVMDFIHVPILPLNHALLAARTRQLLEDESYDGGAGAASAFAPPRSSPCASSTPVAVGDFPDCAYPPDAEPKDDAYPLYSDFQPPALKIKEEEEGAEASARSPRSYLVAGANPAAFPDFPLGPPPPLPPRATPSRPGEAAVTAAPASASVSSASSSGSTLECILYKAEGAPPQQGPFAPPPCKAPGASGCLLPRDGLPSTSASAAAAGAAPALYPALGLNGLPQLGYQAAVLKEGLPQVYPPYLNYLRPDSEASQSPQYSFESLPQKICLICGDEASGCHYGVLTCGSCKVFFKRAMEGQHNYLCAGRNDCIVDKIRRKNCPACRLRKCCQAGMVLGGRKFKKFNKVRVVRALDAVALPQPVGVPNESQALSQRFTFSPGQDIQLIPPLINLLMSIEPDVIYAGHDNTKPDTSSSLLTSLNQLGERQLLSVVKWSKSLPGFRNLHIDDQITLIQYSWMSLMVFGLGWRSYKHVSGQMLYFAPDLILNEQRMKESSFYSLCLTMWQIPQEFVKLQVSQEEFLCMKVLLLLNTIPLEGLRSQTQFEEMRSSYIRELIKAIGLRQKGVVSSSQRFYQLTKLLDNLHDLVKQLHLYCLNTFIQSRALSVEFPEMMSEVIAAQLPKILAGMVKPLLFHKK

[4] = target: Cytochrome P450 3A4 (Homo sapiens, UniProt P08684); assay: Inhibition of CYP3A4; type: ADME
Cytochrome P450 3A4, sequence (P08684 whole entry): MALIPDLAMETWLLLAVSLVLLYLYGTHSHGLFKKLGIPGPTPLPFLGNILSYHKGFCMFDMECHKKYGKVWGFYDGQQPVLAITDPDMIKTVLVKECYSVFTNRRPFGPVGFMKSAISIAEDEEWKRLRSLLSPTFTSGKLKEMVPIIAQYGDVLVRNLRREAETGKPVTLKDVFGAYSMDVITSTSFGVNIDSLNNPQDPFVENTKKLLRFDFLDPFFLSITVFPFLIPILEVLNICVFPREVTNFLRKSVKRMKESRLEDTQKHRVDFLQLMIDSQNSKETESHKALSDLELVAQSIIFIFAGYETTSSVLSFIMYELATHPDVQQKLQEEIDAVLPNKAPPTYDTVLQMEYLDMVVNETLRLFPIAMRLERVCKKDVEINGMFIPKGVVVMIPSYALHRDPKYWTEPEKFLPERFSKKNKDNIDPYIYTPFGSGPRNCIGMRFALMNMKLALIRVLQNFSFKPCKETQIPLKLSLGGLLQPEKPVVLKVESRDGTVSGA

[5] = target: Cytochrome P450 2C9 (Homo sapiens, UniProt P11712); assay: Inhibition of CYP2C9; type: ADME
Cytochrome P450 2C9, sequence (P11712 whole entry): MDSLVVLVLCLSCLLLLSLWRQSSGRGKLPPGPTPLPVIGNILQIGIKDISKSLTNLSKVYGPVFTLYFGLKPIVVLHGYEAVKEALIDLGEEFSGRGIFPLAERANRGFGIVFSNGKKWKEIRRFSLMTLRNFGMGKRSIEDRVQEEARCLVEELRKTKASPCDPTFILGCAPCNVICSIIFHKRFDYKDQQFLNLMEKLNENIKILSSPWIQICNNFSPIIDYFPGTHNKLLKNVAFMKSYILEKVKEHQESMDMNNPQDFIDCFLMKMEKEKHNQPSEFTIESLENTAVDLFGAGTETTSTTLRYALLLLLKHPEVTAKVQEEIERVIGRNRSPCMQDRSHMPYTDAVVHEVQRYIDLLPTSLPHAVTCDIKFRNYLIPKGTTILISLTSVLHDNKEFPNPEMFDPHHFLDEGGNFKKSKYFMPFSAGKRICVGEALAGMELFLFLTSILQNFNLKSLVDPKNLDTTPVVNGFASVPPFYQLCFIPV

[6] = target: Cytochrome P450 2D6 (Homo sapiens, UniProt P10635); assay: Inhibition of CYP2D6; type: ADME
Cytochrome P450 2D6, sequence (P10635 whole entry): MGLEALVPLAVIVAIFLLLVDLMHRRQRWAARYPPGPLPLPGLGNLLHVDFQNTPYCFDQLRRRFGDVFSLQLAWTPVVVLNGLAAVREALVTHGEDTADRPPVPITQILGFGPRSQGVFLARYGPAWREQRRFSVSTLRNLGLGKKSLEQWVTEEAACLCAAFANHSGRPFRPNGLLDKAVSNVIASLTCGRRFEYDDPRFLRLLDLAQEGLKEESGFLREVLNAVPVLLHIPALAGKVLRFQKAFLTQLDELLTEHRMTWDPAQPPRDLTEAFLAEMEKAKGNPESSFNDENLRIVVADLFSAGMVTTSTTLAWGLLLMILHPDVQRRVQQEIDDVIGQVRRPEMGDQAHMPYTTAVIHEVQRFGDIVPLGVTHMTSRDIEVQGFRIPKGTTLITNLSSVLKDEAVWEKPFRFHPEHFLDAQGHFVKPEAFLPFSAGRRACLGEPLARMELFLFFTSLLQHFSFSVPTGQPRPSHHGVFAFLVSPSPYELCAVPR

[7] = Solubility of the compound; type: physicochemical
[8] = Intrinsic clearance in rat liver microsomes; type: ADME, Microsome
[9] = target: T4, Mineralocorticoid receptor (Homo sapiens, UniProt P08235)
T4 sequence (P08235 whole entry): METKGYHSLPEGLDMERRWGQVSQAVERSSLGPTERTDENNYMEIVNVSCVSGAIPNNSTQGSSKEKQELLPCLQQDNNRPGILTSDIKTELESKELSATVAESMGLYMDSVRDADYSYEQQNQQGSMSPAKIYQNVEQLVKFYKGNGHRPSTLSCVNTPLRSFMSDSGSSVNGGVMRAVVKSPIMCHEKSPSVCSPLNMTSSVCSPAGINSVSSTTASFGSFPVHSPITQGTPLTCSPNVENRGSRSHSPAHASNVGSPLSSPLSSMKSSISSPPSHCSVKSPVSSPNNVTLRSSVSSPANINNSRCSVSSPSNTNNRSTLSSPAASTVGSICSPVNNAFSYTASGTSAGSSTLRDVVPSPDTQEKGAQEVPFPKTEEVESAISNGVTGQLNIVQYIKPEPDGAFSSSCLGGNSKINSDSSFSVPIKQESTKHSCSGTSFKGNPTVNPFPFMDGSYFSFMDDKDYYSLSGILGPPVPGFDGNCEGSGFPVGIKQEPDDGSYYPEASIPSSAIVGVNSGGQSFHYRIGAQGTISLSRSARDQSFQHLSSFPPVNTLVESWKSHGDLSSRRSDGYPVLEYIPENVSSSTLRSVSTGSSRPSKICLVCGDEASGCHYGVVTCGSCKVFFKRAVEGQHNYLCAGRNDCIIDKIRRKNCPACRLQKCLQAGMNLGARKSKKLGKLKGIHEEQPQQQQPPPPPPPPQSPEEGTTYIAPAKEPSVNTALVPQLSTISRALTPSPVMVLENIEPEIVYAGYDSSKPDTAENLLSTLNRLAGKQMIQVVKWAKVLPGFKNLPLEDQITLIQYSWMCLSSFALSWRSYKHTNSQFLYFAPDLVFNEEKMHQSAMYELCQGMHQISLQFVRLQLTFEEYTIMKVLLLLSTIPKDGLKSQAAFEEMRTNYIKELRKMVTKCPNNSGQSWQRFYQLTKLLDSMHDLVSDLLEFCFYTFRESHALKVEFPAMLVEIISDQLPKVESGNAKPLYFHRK
Description: Antagonist activity at mineralocorticoid receptor LBD expressed in human HUH7 cells coexpressing GAL4 by luciferase reporter gene assay

[10] = tested on: Rattus norvegicus; assay: Antihypertensive activity in Dahl salt-sensitive rat model assessed as decrease of systolic blood pressure at 100 mg/kg administered with chow diet for 21 days; type: functional, organism-based; set-up: dose 100 mg/kg; details: Artery
[11] = tested on: Rattus norvegicus; assay: Antihypertensive activity in Dahl salt-sensitive rat model assessed as decrease of systolic blood pressure at 60 mg/kg, po bid for 21 days; type: functional, organism-based; set-up: dose 60 mg/kg; details: Artery
[12] = tested on: Rattus norvegicus; assay: Protection of renal injury in Dahl salt-sensitive rat model assessed as reduction of urinal albumin excretion at 60 mg/kg, po bid for 21 days; type: functional, organism-based; set-up: dose 60 mg/kg
[13] = tested on: Liver microsomes; assay: Metabolic stability in human liver microsomes assessed as compound remaining; type: ADME, Microsome
[14] = tested on: Liver microsomes; assay: Metabolic stability in rat liver microsomes assessed as compound remaining; type: ADME, Microsome

Structure (SMILES) | IC50 [1] [nM] | IC50 [2] [nM] | IC50 [3] [nM] | IC50 [4] [nM] | IC50 [5] [nM] | IC50 [6] [nM] | solubility [7] [µM] | CLint scaled [8] [mL/min/kg] | IC50 [9] [nM] | Activity [10] | Activity [11] | Activity [12] | Stability [13] [%] | Stability [14] [%]
COC(=O)C1=C(Cn2cnnn2)NC(C)=C(C#N)[C@H]1c1ccc(F)cc1Cl | 1000 | 300 | 7200 | > 10000 | > 10000 | > 10000 | 32 (≈ 12.4 µg/mL) | 8.71 | 52 | – | – | – | – | –
COC(=O)[C@@H]1CC2=CC(=O)CC[C@]2(C)[C@@]23O[C@@H]2C[C@@]2(C)[C@@H](CC[C@@]24CCC(=O)O4)[C@H]13 | – | – | – | – | – | – | – | – | – | Active | Active | Active | – | –
COC(=O)C1=C(Cn2cccn2)NC(C)=C(C#N)C1c1ccc(F)cc1Cl (stereo unspecified) | 3300 | – | 5500 | 1100 | 600 | > 10000 | > 5 | – | 54 | – | – | – | 2 | 31
